In ChEMBL document CHEMBL1145498, “A systematic interaction map of validated kinase inhibitors with Ser/Thr kinases” (Proc Natl Acad Sci U S A, 2007):

Tests used:
[1] = target: Cyclin-dependent kinase 16 (Homo sapiens) (UniProt Q00536)
[2] = target: Mitogen-activated protein kinase 11 (Homo sapiens, UniProt Q15759)
[3] = target: Casein kinase I isoform gamma-1 (Homo sapiens) (UniProt Q9HCP0)
[4] = target: Cyclin-dependent kinase 6 (Homo sapiens) (UniProt Q00534)
[5] = target: Serine/threonine-protein kinase pim-3 (Homo sapiens) (UniProt Q86V86)
[6] = target: Calcium/calmodulin-dependent protein kinase type 1D (Homo sapiens) (UniProt Q8IU85)
Chain of Calcium/calmodulin-dependent protein kinase type 1D (Homo sapiens) (Q8IU85 whole entry, looked up): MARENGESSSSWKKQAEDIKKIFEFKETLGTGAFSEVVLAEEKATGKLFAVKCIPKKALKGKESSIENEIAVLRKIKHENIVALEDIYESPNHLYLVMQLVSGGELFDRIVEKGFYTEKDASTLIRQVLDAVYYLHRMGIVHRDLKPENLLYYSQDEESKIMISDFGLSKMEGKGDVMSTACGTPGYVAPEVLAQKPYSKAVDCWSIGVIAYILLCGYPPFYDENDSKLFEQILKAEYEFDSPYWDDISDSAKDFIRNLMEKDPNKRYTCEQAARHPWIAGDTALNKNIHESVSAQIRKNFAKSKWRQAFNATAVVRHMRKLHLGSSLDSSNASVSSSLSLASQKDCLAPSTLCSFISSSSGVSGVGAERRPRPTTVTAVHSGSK

[7] = target: Death-associated protein kinase 3 (Homo sapiens) (UniProt O43293)
[8] = target: T1, Serine/threonine-protein kinase VRK1 (Homo sapiens) (UniProt Q99986)
T1 sequence (whole entry): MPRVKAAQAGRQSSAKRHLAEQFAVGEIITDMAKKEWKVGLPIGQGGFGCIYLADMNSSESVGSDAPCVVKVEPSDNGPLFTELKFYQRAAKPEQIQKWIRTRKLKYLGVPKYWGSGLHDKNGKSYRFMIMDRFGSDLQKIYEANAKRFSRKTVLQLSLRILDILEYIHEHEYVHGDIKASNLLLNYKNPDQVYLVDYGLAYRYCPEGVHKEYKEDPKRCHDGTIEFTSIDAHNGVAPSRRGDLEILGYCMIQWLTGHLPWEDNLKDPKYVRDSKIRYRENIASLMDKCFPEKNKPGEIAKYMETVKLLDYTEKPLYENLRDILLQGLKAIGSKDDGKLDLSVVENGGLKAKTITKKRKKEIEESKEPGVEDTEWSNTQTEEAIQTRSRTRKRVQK

[9] = target: Serine/threonine-protein kinase 16 (Homo sapiens) (UniProt O75716)
Chain of Serine/threonine-protein kinase 16 (Homo sapiens) (O75716 whole entry): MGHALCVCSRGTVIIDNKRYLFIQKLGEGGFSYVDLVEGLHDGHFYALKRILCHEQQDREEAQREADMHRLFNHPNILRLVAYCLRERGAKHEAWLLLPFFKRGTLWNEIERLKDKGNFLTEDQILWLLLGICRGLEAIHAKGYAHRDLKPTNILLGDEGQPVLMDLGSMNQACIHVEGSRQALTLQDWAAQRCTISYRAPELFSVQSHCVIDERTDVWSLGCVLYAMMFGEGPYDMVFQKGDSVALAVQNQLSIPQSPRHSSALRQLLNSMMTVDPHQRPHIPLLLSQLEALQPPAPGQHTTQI

[10] = target: T2, Serine/threonine-protein kinase PLK4 (Homo sapiens) (UniProt O00444)
T2 sequence (whole entry): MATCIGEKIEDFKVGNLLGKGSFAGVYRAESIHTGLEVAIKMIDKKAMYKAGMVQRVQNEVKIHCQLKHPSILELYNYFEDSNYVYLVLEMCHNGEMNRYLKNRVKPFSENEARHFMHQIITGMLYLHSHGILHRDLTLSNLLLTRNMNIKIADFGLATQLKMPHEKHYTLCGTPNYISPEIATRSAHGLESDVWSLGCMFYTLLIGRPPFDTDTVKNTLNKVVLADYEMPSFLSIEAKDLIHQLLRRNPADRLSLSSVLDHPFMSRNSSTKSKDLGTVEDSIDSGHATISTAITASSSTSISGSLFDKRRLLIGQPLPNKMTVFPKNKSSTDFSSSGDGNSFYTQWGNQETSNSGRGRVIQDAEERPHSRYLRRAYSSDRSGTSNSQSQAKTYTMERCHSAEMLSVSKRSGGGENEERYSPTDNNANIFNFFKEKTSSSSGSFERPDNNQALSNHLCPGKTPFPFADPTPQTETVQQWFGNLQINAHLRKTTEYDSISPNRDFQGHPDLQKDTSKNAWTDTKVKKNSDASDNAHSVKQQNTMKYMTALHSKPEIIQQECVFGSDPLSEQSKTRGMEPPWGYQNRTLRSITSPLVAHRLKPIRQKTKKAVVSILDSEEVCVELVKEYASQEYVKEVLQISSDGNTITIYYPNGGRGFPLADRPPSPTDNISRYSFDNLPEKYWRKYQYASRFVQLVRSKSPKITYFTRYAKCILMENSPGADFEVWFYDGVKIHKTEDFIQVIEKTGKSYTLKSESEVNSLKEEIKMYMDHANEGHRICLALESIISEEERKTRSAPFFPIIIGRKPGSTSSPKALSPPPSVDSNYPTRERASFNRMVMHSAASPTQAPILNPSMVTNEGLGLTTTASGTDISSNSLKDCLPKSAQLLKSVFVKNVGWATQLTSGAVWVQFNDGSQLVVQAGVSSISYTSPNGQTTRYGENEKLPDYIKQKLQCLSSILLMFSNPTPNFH

[11] = target: TRAF2 and NCK-interacting protein kinase (Homo sapiens) (UniProt Q9UKE5)
Chain of TRAF2 and NCK-interacting protein kinase (Homo sapiens) (Q9UKE5 whole entry, looked up): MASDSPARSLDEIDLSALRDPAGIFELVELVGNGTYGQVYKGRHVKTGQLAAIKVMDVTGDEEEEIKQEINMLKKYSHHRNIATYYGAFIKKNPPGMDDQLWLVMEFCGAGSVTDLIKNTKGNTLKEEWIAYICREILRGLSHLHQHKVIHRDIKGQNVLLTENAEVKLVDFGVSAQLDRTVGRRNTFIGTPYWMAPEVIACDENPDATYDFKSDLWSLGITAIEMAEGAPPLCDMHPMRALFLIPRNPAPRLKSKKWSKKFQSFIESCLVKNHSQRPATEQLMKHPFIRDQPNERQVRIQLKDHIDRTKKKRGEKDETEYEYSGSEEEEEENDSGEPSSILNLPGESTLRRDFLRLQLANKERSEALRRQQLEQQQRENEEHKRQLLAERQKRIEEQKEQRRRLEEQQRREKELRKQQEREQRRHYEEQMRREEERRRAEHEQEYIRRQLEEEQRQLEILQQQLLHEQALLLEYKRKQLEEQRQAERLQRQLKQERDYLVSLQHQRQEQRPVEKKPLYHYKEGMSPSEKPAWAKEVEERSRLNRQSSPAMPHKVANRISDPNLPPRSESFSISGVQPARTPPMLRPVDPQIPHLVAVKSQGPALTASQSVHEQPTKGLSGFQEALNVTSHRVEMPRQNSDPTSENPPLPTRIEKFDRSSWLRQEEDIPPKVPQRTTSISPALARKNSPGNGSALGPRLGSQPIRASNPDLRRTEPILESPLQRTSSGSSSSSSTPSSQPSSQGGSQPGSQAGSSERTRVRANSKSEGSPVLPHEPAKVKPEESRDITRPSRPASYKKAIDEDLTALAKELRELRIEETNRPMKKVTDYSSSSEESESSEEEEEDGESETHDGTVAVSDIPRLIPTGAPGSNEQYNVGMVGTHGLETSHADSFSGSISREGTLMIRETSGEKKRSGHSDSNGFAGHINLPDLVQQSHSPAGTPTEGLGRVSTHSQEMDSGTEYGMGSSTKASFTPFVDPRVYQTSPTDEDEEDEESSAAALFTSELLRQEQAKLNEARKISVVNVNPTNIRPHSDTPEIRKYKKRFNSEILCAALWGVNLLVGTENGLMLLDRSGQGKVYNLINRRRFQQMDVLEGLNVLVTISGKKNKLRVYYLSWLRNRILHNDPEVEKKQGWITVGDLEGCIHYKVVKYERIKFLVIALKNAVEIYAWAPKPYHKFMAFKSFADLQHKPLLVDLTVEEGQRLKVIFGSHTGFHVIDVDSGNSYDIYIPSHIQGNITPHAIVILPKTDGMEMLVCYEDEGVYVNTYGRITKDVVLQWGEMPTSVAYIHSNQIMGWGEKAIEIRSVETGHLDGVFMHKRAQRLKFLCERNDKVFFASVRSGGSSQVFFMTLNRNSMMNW

[12] = target: Mitogen-activated protein kinase 6 (Homo sapiens) (UniProt Q16659)
[13] = target: Calcium/calmodulin-dependent protein kinase type II subunit delta (Homo sapiens) (UniProt Q13557)
Chain of Calcium/calmodulin-dependent protein kinase type II subunit delta (Homo sapiens) (Q13557 whole entry): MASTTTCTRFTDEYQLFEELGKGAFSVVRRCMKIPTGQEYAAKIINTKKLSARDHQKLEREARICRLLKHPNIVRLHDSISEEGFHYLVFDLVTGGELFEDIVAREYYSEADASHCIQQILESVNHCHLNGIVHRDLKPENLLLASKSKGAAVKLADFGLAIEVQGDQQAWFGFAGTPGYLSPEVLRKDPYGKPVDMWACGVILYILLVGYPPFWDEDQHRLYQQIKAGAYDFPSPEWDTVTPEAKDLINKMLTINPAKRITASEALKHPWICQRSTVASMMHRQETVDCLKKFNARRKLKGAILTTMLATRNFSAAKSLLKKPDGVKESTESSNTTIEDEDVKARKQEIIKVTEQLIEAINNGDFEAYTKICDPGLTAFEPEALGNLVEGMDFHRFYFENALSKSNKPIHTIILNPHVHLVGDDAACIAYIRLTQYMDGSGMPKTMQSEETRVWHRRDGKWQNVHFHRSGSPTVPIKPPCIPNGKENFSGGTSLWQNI

[14] = target: Cyclin-dependent kinase 2 (Homo sapiens, UniProt P24941)
[15] = target: Serine/threonine-protein kinase VRK2 (Homo sapiens) (UniProt Q86Y07)
Chain of Serine/threonine-protein kinase VRK2 (Homo sapiens) (Q86Y07 whole entry): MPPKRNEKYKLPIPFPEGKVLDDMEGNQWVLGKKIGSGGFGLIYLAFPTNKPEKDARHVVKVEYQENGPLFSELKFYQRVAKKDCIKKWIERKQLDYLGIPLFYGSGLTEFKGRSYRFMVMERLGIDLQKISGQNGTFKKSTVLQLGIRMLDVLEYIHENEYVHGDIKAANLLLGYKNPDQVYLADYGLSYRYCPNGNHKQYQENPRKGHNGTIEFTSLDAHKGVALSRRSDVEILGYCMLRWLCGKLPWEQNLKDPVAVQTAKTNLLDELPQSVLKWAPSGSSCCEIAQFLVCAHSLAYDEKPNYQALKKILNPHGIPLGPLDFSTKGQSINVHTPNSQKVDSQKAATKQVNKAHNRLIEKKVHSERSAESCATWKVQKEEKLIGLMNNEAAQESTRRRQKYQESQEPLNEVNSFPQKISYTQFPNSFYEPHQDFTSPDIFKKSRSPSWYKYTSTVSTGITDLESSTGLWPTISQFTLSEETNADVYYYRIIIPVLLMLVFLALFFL

[16] = target: Dual specificity protein kinase CLK2 (Homo sapiens) (UniProt P49760)
Chain of Dual specificity protein kinase CLK2 (Homo sapiens) (P49760 whole entry, looked up): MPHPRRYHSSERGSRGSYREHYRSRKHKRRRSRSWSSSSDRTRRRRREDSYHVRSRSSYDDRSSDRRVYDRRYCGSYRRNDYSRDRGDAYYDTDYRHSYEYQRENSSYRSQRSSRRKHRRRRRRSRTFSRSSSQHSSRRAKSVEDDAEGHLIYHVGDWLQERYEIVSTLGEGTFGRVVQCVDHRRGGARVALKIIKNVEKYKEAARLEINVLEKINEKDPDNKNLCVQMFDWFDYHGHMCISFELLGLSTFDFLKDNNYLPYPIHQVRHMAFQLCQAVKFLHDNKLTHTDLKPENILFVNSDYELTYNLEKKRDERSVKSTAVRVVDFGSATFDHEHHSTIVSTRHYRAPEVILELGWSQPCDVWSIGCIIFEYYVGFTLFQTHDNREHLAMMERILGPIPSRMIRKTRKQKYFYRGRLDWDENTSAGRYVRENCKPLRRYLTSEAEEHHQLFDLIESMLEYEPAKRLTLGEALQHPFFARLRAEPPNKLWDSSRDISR

Chain of Mitogen-activated protein kinase 11 (Q15759 whole entry, canonical isoform): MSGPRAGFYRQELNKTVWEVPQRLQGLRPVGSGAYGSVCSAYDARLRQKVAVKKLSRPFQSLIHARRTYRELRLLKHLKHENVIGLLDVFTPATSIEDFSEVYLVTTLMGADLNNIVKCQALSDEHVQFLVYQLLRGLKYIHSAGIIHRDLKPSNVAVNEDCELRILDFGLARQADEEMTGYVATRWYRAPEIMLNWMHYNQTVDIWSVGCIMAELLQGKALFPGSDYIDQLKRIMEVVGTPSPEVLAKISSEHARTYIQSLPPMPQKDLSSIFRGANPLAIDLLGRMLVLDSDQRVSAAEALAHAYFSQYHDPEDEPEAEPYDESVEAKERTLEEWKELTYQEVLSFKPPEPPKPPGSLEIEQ
Chain of Cyclin-dependent kinase 6 (Homo sapiens) (Q00534 whole entry): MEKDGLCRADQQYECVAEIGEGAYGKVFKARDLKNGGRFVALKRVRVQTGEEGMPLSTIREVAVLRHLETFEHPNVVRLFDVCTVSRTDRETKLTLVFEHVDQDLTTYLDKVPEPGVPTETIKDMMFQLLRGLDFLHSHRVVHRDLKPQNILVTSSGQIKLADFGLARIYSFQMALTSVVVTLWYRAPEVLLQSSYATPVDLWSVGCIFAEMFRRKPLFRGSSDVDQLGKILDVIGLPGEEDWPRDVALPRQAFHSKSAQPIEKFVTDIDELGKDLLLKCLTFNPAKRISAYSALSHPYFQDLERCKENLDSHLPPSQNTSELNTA
Chain of Casein kinase I isoform gamma-1 (Homo sapiens) (Q9HCP0 whole entry, looked up, canonical isoform): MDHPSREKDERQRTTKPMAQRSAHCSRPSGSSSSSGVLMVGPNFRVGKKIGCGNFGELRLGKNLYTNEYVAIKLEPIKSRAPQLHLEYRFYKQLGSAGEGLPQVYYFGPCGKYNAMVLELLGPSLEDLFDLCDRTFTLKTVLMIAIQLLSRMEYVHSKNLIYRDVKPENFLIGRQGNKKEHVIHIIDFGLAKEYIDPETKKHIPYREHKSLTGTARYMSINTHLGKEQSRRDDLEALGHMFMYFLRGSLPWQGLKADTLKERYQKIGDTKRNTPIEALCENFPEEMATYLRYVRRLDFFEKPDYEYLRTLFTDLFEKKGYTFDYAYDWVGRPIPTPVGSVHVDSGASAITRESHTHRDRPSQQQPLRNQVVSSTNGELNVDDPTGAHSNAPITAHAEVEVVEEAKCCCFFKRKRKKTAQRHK

SMILES | ΔTm [1] [°C] | ΔTm [2] [°C] | ΔTm [3] [°C] | ΔTm [4] [°C] | ΔTm [5] [°C] | ΔTm [6] [°C] | ΔTm [7] [°C] | ΔTm [8] [°C] | ΔTm [9] [°C] | ΔTm [10] [°C] | ΔTm [11] [°C] | ΔTm [12] [°C] | ΔTm [13] [°C] | ΔTm [14] [°C] | ΔTm [15] [°C] | ΔTm [16] [°C]
COC1=C2C[C@@H](C)C[C@H](OC)[C@H](O)[C@@H](C)/C=C(\C)[C@H](OC(N)=O)[C@@H](OC)/C=C\C=C(/C)C(=O)NC(=CC1=O)C2=O | -0.4 | -0.2 | 0.5 | 0.1 | 0.5 | 0.1 | -0.6 | -0.1 | 0.4 | 0.2 | -0.4 | 0.1 | -0.5 | 0.5 | 0.2 | -0.1
O=S(=O)(NCCNC/C=C/c1ccc(Br)cc1)c1cccc2cnccc12 | 0.7 | 0.4 | 0.6 | -0.4 | 1 | -0.1 | 3.8 | -0.3 | 0.5 | 1.1 | 0 | 0.4 | -0.2 | -0.5 | 0.1 | 0.7
Cn1cc(/C=C2/C(=O)Nc3ccc(S(N)(=O)=O)cc32)c2ccccc21 | 1.9 | 0.2 | -0.9 | -0.2 | 3.4 | 2 | 0.3 | 1.6 | 1.7 | 6.2 | 1.3 | 5.5 | 2.5 | 1.3 |  | 3.6
COC(=O)[C@]1(O)C[C@@H]2O[C@@]1(C)n1c3ccccc3c3c4c(c5c6ccccc6n2c5c31)C(=O)NC4 (single isomer, unassigned) | 0.8 | 0.7 | 0.6 | 3.1 | 5.8 | 4 | 4.6 | 0.2 | 2.3 | 12.5 | 8.7 | 0.3 | 3.5 |  | -0.2 | 4.8
COc1cc2ncnc(Nc3cccc(O)c3)c2cc1OC | -0.6 | 0.8 | 1.3 | -0.2 | 2 | -0.1 | 1.7 |  | 0.4 | 3.9 | 0.9 | 0.1 | -0.6 |  | 0.9 | 1.3
CCN(CC)CCNC(=O)c1c(C)[nH]c(/C=C2\C(=O)Nc3ccc(F)cc32)c1C |  | 0.1 |  | 2.1 | 7.1 |  | 0.3 | 6.8 | 3.3 | 1.6 | 0.7 |  | 2.3 |  |  | 5.9
Cc1nc(Nc2ncc(C(=O)Nc3c(C)cccc3Cl)s2)cc(N2CCN(CCO)CC2)n1 | -0.4 | 0.4 | 0.3 | -0.1 | -0.2 | 0.9 | 0 |  |  | 2.5 |  | 0.9 | 0 | 0.2 |  | 0.1
Clc1ccc(Nc2nnc(Cc3ccncc3)c3ccccc23)cc1 | 0.2 | 0.5 | -0.2 | 0.3 | -0.4 | 0.6 | 0 |  |  | 0.4 |  | 1.3 | -0.4 | -0.5 |  | -0.6
COc1ccc(COc2ccc(Cc3cnc(N)nc3N)cc2OC)cc1 | 0.1 | -0.1 | 0.7 | 0.9 | 0 | 0.1 | 0.3 | -0.2 | 0 | -0.1 | 0.1 | 1.5 | -0.2 |  |  | -0.2
Nc1nc(Nc2ccc(S(N)(=O)=O)cc2)nn1C(=S)Nc1c(F)cccc1F | 10 | 1.9 |  | 4.6 | 1.9 | 3.1 | 3 | 1.9 | 7.8 | 13.1 | 9.9 | 2.1 | 0.7 | 15.9 | 2 | 8.9
Nc1nccc(-c2c(-c3ccc(F)cc3)ncn2C2CCNCC2)n1 | 0.5 |  | 3 | 0.3 | 0 | -0.2 | 0.8 | 1.1 | -0.1 | 0.2 | -0.9 | 0.3 | 0.2 | -0.8 | 0.2 | 0.3
CN[C@@H]1CC2O[C@@](C)([C@@H]1OC)n1c3ccccc3c3c4c(c5c6ccccc6n2c5c31)C(=O)NC4 |  | 0.5 | 1.9 | 1 | 17.7 |  | 13 | 2.2 | 9.6 | 21.2 | 9.4 | 1 | 17.1 |  | 2 | 6.9
Nc1n[nH]c2nnc(-c3c(-c4ccccc4)nn4ccccc34)cc12 | 0.2 | 4.5 | 0.9 | 1.7 | 1.2 | 0.1 | 3.9 | -0.3 | 0 | -0.2 | 1.1 | 1.3 | -0.6 | 0.1 |  | 0.5
OC[C@H]1O[C@@H](n2cnc3cc(Cl)c(Cl)cc32)[C@H](O)[C@@H]1O | -0.3 | 0 | 0.7 | -0.3 | 3.1 | 0 | 1.6 | -0.1 | 1.1 | 0.5 | 0.2 | -0.1 | -0.2 |  | 0 | 1.6
Cc1ccc(NC(=O)c2ccc(CN3CCN(C)CC3)cc2)cc1Nc1nccc(-c2cccnc2)n1 | -0.4 | -0.5 | 0.5 | 0.2 | 0.2 | 0.4 | 2.8 | 0.4 | 2.9 | 0.2 | 0 | 0.5 | 0.3 |  | 0.5 | 
CN1CCC(Nc2ncc3ncnc(Nc4ccc(F)c(Cl)c4)c3n2)CC1 [FALNIDAMOL] | 7.7 | 0 | 0.4 | 1 | 0.5 | 0.7 | 0.3 |  |  | 0.3 |  | 0 | 0.5 | 0.1 |  | 4.2
